# Target: T1, Botulinum neurotoxin type A (Clostridium botulinum, UniProt P0DPI0)
# T1 sequence (P0DPI0 2-448 limits assumed): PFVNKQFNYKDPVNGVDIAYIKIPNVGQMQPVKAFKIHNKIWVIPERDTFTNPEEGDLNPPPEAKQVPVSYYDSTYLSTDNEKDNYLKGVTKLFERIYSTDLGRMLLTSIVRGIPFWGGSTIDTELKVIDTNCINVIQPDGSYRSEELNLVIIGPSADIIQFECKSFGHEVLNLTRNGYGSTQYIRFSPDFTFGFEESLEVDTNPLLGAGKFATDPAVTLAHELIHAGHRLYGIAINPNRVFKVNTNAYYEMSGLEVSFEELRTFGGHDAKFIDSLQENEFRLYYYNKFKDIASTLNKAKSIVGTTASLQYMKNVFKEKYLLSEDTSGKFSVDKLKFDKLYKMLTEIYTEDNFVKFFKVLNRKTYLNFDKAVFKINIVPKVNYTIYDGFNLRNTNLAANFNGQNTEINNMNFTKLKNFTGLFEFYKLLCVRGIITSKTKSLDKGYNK
row,Compound,Ki [µM]
1,O=C(CN(Cc1ccccc1)Cc1ccccc1)NO,90

# Target: T1, Botulinum neurotoxin type A
# Experiment: Inhibition of Clostridium botulinum BoNT/A light chain (1 to 429 amino acid) using Abz-Thr-dArg-Ile-Asp-Glu-Ala-Asn-Gln-Arg-Ala-Thr-Lys-Nle-Lys(Dnp)-NH2 as substrate after 10 mins by FRET assay
row,Compound,Ki [µM]
1,O=C(Cn1nc(Cc2ccccc2)c2ccccc2c1=O)NO,93
2,CCC(C)C(C(=O)NO)N1C(=O)c2ccccc2C1=O (stereo not given),188
3,Cc1cc(C(=O)NC(Cc2c[nH]c3ccccc23)C(=O)NO)c(C)o1 (stereo not given),> 300
4,Cc1ccc(OCC(=O)NC(Cc2ccccc2)C(=O)NO)cc1 (stereo not given),> 300
5,O=C(CC1SC(N2CCCC2)=NC1=O)NO (stereo not given),> 300
6,Cc1nnc(SCC(=O)NO)n1Cc1ccccc1,> 300
7,NC(=O)C1CC(C(=O)NO)=NN1c1ccccc1 (stereo not given),> 300
8,O=C(NC(Cc1c[nH]c2ccccc12)C(=O)NO)c1ccc(Cl)s1 (stereo not given),> 300
9,O=C(CC1Sc2ccccc2NC1=O)NO (stereo not given),> 300
10,O=C(NC(Cc1c[nH]c2ccccc12)C(=O)NO)c1ccc(F)cc1 (stereo not given),212
11,Cc1ccc(C(=O)NC(Cc2c[nH]c3ccccc23)C(=O)NO)o1 (stereo not given),> 300
12,O=C(NC(Cc1c[nH]c2ccccc12)C(=O)NO)c1ccco1 (stereo not given),> 300
13,O=C(CN1C(=O)c2ccccc2C1c1c[nH]c2ccccc12)NO (stereo not given),> 300
14,COc1ccccc1-c1cc(C(=O)NO)[nH]n1,> 300
15,O=C(COc1ccccc1)NC(Cc1ccccc1)C(=O)NO (stereo not given),> 300
16,Cc1ccc(CN(CC(=O)NO)S(=O)(=O)c2ccccc2)cc1,142
17,Cc1nc(C)c(CCC(=O)NO)c(=O)[nH]1,> 300
18,Cc1[nH]c2ccccc2c1C1c2ccccc2C(=O)N1CC(=O)NO (stereo not given),142
19,O=C(CCN1C(=O)c2ccccc2C1c1c[nH]c2ccccc12)NO (stereo not given),194
20,O=C(NC(Cc1ccccc1)C(=O)NO)C1CCCCC1 (stereo not given),> 300
21,O=C(CCC(=O)N(c1ccccc1)c1ccccc1)NO,> 300
22,CCCCOc1ccccc1-c1cc(C(=O)NO)[nH]n1,> 300
23,O=C(NO)c1cccc(-c2ccc(CNCC3CCCO3)o2)c1 (stereo not given),> 300
24,O=C(NO)c1ccccc1-c1ccccc1C(=O)Nc1ccccn1,21
25,Cc1nnc(SCc2ccccc2C(=O)NO)n1C,> 300
26,COc1ccc(CN2CCNC(=O)C2CC(=O)NO)cc1OC (stereo not given),> 300
27,O=C(CNC(=O)c1ccc2noc(-c3ccccc3)c2c1)NO,77
28,O=C(CC1C(=O)NCCN1C/C=C/c1ccccc1)NO (stereo not given),> 300
29,O=C(Cc1nc(-c2cccnc2)sc1-c1ccc(Cl)cc1)NO,> 300

# — ChEMBL document CHEMBL2375245, “Virtual medicinal chemistry: in silico pre-docking functional group transformation for discovery of novel inhibitors of botulinum toxin serotype A light chain” (Bioorg Med Chem Lett, 2013)
